The results in this text go back to US12612442B2, “G12-specific designer receptor exclusively activated by designer drugs” (CELL NETWORKS GMBH, priority 2019, dated 2026).

Experiment [1] deals with DREADDs (M3D, M4D, M3D-Gs, M3D-GPR183/ICL3, M3D-GPR132/ICL3). As to the kind of experiment: NanoBiT-G-protein dissociation assay, DREADD panel with titrated CNO. It is filed as cell-based, human. Conditions: all of the DREADDs, HEK293 cells, read-out: EC50 values of CNO for each primary-coupling G-protein. How it is done: (§1) Plasmid transfection was performed in a 6-well plate with a mixture of 100 ng Gα-Lg-encoding plasmid, 500 ng Sm-Gβ-encoding plasmid, 500 ng untagged Gγ2-encoding plasmid, 200 ng GPCR-encoding plasmid with or without 100 ng RIC8-encoding plasmid (per well, hereafter). Unless otherwise stated, the combination of following plasmid mixtures was used: Gαs-Lg, Sm-Gβ1, Gγ2 and RIC8B for NanoBiT-Gs; Gαi1-Lg, Sm-Gβ5 and Gγ2 for NanoBiT-Gi1; Gαi2-Lg, Sm-Gβ3 and Gγ2 for NanoBiT-Gi2; Gαi3-Lg, Sm-Gβ3 and Gγ2 for NanoBiT-Gi3; Gαo-Lg, Sm-Gβ1 and Gγ2 for NanoBiT-Go; Gαq-Lg, Sm-Gβ1, Gγ2 and RIC8A for NanoBiT-Gq; Gα12-Lg, Sm-Gβ1, Gγ2 and RIC8A for NanoBiT-G12; Gα13-Lg, Sm-Gβ1, Gγ2 and RIC8A for NanoBiT-G13. After 1-day culture, the transfected cells were harvested with 1 mL of 0.53 mM EDTA-containing Dulbecco's PBS (D-PBS), followed by addition of 2 mL the HEPES-containing HBSS. The cells were pelleted by centrifugation at 190 g for 5 min and resuspended in 2 mL of the 0.01% BSA- and 5 mM HEPES (pH 7.4)-containing HBSS (assay buffer). […] After 2-h incubation with coelenterazine at room temperature, background luminescent signals were measured using a luminescent microplate reader (SpectraMax L, Molecular Devices). […] Luminescent signals were measured 3-5 min after ligand addition and divided by the initial count. […]

In experiment [2] the target is T1, M3D-GPR183/ICL3 (Homo sapiens, UniProt P20309, A239G/DEL264-389/DEL400-485/E393L/E394T/G397S/K260R/L396K/M398G/R261T/T262A/V391N/Y149C).
T1 construct: expressed in transfected cells; host or cells: parental HEK293 (NanoBiT-G-protein assay); ΔGq HEK293 (TGFα shedding assay)
T1 sequence (P20309 with tags, fused parts or gaps Y149C/A239G/K260R/R261T/T262A/DEL264-389/V391N/E393L/E394T/L396K/G397S/M398G/DEL400-485): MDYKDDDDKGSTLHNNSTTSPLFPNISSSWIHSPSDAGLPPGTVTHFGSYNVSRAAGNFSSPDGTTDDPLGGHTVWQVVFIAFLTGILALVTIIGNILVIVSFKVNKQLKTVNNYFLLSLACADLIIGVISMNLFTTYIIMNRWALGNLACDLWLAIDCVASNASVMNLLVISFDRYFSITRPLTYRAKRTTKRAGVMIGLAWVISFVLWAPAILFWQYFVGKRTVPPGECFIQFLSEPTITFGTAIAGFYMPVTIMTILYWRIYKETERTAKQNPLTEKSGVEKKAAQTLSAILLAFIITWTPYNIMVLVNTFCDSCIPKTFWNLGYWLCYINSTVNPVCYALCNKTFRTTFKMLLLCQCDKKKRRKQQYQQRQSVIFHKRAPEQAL
As to the kind of experiment: TGFα shedding assay in ΔGq HEK293 cells, M3D-GPR183/ICL3. It is filed as cell-based. Particulars: 10 μM CNO. On the procedure: (§2) The TGFα shedding assay was performed as described previously (Inoue et al., 2012) with minor modifications. Plasmid transfection was performed in a 6-well plate with a mixture of 500 ng AP-TGFα-encoding plasmid, 200 ng GPCR-encoding plasmid with or without 100 ng Gα-encoding plasmid (per well, hereafter). After 1-day culture, the transfected cells were harvested by trypsinization, pelleted by centrifugation at 190 g for 5 min and washed once with Hank's Balanced Salt Solution (HBSS) containing 5 mM HEPES (pH 7.4). After centrifugation, the cells were resuspended in 6 ml of the HEPES-containing HBSS. […] The cell suspension was seeded in a 96-well culture plate (cell plate) at a volume of 90 μl (per well hereafter) and incubated for 30 min in a 5% CO2 incubator at 37° C. The cells were treated with a GPCR ligand (10×, diluted in HBSS containing 5 mM HEPES (pH 7.4) and 0.01% (w/v) bovine serum albumin (BSA, fatty acid-free and protease-free grade; Serva)). After spinning the cell plates, conditioned media (80 μl) was transferred to an empty 96-well plate (conditioned media (CM) plate). […] Absorbance at 405 nm (Ab405) of the plates was measured, using a microplate reader (SpectraMax 340 PC384, Molecular Devices), before and after 1-h or 2-h incubation at room temperature. Ligand-induced AP-TGFα release was calculated as described previously. […]

Experiment [3] has as its target T2, M3D-GPR132/ICL3 (Homo sapiens, UniProt P20309, A239G/DEL260-297/DEL301-447/DEL453-484/K449L/K485Q/T451A/Y149C).
T2 construct: expressed in transfected cells; host or cells: parental HEK293 (NanoBiT-G-protein assay); ΔGq HEK293 (TGFα shedding assay)
T2 sequence (P20309 with tags, fused parts or gaps Y149C/A239G/DEL260-297/DEL301-447/K449L/T451A/DEL453-484/K485Q): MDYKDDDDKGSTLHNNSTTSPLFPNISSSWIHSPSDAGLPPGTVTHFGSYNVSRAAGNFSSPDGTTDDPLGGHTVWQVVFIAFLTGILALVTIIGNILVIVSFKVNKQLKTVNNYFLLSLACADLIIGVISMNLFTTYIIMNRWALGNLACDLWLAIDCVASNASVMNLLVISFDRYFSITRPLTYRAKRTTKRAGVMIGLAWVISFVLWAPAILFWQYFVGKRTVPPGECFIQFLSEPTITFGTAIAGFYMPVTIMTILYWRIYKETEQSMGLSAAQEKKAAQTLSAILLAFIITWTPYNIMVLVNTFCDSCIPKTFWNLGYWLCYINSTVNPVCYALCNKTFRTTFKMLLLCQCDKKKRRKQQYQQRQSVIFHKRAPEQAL
As to the kind of experiment: TGFα shedding assay in ΔGq HEK293 cells, M3D-GPR132/ICL3. The format is cell-based. Particulars: 10 μM CNO. On the procedure:
as §2

The test system of another experiment is M3D-P2RY10/ICL3. The experiment is described as follows: NanoBiT-G-protein dissociation assay, M3D-P2RY10/ICL3. It is filed as cell-based, human. Conditions: 10 μM CNO; parental HEK293 cells. How it is done:
as §1

A further experiment deals with M3D-LTB4R2/ICL3. The experiment is described as follows: NanoBiT-G-protein dissociation assay, M3D-LTB4R2/ICL3. It is filed as cell-based, human. Conditions: 10 μM CNO; parental HEK293 cells. On the procedure: as §1
Experiment [4] has as its target T1, M3D-GPR183/ICL3. The experiment is described as follows: NanoBiT-G-protein dissociation assay, M3D-GPR183/ICL3. It is filed as cell-based. On the procedure: (§3) Plasmid transfection was performed in a 6-well plate with a mixture of 100 ng Gα-Lg-encoding plasmid, 500 ng Sm-Gβ-encoding plasmid, 500 ng untagged Gγ2-encoding plasmid, 200 ng GPCR-encoding plasmid with or without 100 ng RIC8-encoding plasmid (per well, hereafter). Unless otherwise stated, the combination of following plasmid mixtures was used: Gαs-Lg, Sm-Gβ1, Gγ2 and RIC8B for NanoBiT-Gs; Gαi1-Lg, Sm-Gβ5 and Gγ2 for NanoBiT-Gi1; Gαi2-Lg, Sm-Gβ3 and Gγ2 for NanoBiT-Gi2; Gαi3-Lg, Sm-Gβ3 and Gγ2 for NanoBiT-Gi3; Gαo-Lg, Sm-Gβ1 and Gγ2 for NanoBiT-Go; Gαq-Lg, Sm-Gβ1, Gγ2 and RIC8A for NanoBiT-Gq; Gα12-Lg, Sm-Gβ1, Gγ2 and RIC8A for NanoBiT-G12; Gα13-Lg, Sm-Gβ1, Gγ2 and RIC8A for NanoBiT-G13. After 1-day culture, the transfected cells were harvested with 1 mL of 0.53 mM EDTA-containing Dulbecco's PBS (D-PBS), followed by addition of 2 mL the HEPES-containing HBSS. The cells were pelleted by centrifugation at 190 g for 5 min and resuspended in 2 mL of the 0.01% BSA- and 5 mM HEPES (pH 7.4)-containing HBSS (assay buffer). The cell suspension was seeded in a 96-well culture white plate (Greiner Bio-One) at a volume of 80 μl (per well hereafter) and loaded with 20 μl of 50 μM coelenterazine (Carbosynth) solution diluted in the assay buffer. After 2-h incubation with coelenterazine at room temperature, background luminescent signals were measured using a luminescent microplate reader (SpectraMax L, Molecular Devices). The inventors note that incubation time with coelenterazine can be shortened, but an effect of baseline drift should be taken into account (FIG. 14C-E). Test compound (6×, diluted in the assay buffer) was manually added to the cells (20 μl). Luminescent signals were measured 3-5 min after ligand addition and divided by the initial count. The ligand-induced signal ratio was normalized to that treated with vehicle. The consequent fold-change values were fitted to a four-parameter sigmoidal concentration-response described above.

The test system of a further experiment is M3D-NMBR/ICL3. As to the kind of experiment: NanoBiT-G-protein dissociation assay, M3D-NMBR/ICL3. The format is cell-based, human. Conditions: 10 μM CNO; parental HEK293 cells. How it is done: as §1
In experiment [5] the target is T2, M3D-GPR132/ICL3. As to the kind of experiment: NanoBiT-G-protein dissociation assay, M3D-GPR132/ICL3. The format is cell-based. How it is done:
as §3

Experiment [6] concerns RhoA. As to the kind of experiment: Active RhoA pulldown assay in HN12 cells. The format is cell-based. Particulars: 10 μM CP-55940, 1 μM Ang II, 5 min. How it is done:
(§4) HN12 cells and Cal27 cells were cultured to 50% confluency, and then serum starved overnight. To induce RhoA activation, cells were treated with 5 μM LPA, 1 μM Ang II, or 10 μM CP-55940 for 5 min. Active RhoA levels were measured using the RhoA Pull-Down Activation Assay Biochem Kit (bead pull-down format; Cytoskeleton) following the manufacturer instruction using a modified lysis buffer (50 mM Tris-HCl (pH 7.2), 500 mM NaCl, 10 mM MgCl2, 0.1% SDS, 1% NP-40). Briefly, after stimulation, samples were lysed and protein concentrations were quantified using DC Protein Assay (BioRad). Samples were adjusted to the same concentration with lysis buffer and 500 μg of each protein lysate was added to 15 μL GST-tagged Rhotekin-RBD bound to Sepharose beads. Samples were incubated while rocking at 4° C. for 1.5 h. Beads were then washed, eluted in Laemmli sample buffer, and analyzed by western blot using a mouse monoclonal anti-RhoA antibody (Cytoskeleton).

The subject of experiment [7] is RhoA. The experiment is described as follows: Active RhoA pulldown assay in Cal27 cells. The format is cell-based. Conditions: 10 μM CP-55940, 1 μM Ang II, 5 min. On the procedure: as §4
A further experiment addresses CNR1 (Homo sapiens, UniProt P21554). Conditions: HEK293 cells expressing CNR1.
The test system of experiment [8] is RhoA. The experiment is described as follows: NanoBiT-RhoA assay in PC-3 cells (endogenously expressed GPCRs). Particulars: thrombin 1000 U L^−1. It is filed as cell-based, human.
Procedure: (§5) The transfected cells were harvested, seeded in a white 96-well plate and loaded with 10 μM CTZ in the same manner described in the NanoBiT-G-protein dissociation assay. After measuring an initial luminescent signal, test compounds were added to the cells. Then, 3-5 min later, luminescent signals were measured and fold-change values were plotted as described above.
Experiment [9] deals with RhoA. The experiment is described as follows: NanoBiT-RhoA assay in MDA-MB-231 cells (endogenously expressed GPCRs). The format is cell-based, human. Particulars: thrombin 1000 U L^−1.
Procedure: as §5
Where [10] appears, read: 10 μM CNO, parental HEK293 cells.
The mark [11] stands for this setting: titrated CNO, NanoBiT-Gs, Go, Gq, G12 compared.

Chain of CNR1 (P21554 whole entry): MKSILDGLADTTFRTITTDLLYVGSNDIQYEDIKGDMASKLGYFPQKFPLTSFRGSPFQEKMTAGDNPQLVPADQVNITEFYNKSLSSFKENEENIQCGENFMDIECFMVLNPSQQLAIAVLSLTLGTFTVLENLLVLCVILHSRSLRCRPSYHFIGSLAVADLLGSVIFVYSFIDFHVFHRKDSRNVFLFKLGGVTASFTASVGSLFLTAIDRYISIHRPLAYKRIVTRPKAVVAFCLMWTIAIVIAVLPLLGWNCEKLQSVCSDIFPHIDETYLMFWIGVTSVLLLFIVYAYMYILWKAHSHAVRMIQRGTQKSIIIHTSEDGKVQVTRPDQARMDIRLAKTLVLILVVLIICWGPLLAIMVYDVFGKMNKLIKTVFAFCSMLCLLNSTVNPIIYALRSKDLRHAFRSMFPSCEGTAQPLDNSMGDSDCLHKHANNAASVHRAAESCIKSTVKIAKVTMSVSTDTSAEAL
Procedure for CNR1: as §5

Consider `C[N+]1([O-])CCN(C2=Nc3cc(Cl)ccc3Nc3ccccc32)CC1` [CNO, clozapine-N-oxide], for which, in experiment [1], the EC50 was in the range of 100 to 1000 nM. Moreover, the “G12 signaling (TGFα shedding response)” value on M3D-GPR183/ICL3 [2] and on M3D-GPR132/ICL3 [3] was “significant G12 signaling” each time. Further, the “G12 and Go coupling (NanoBiT-G12 / NanoBiT-Go screening)” value is “coupled to G12 and not to Go” with M3D-P2RY10/ICL3; “induced both G12 and Go coupling with a higher Go dissociation signal” with M3D-LTB4R2/ICL3; “coupled to G12 and not to Go” on M3D-GPR183/ICL3 [4] (setting [10]); “coupled to G12 and not to Go” in the experiment with M3D-NMBR/ICL3; “coupled to G12 and not to Go” at M3D-GPR132/ICL3 [5] (setting [10]). In addition, the NanoBiT-G13 dissociation signal result on M3D-GPR183/ICL3 [4] (10 μM CNO) and on M3D-GPR132/ICL3 [5] (10 μM CNO) was “lack of G13 activation” each time. Besides, the G12 dissociation signal result on M3D-GPR183/ICL3 [4] (setting [11]) and on M3D-GPR132/ICL3 [5] (setting [11]) was “robust G12 dissociation signal” each time.

For `CCCCCCC(C)(C)c1ccc([C@@H]2C[C@H](O)CC[C@H]2CCCO)c(O)c1` [CP-55940], the “RhoA activation (GTP-bound RhoA pulldown)” value in the experiment on RhoA [6] and in the experiment with RhoA [7] was “induced activation of RhoA” throughout. Besides, the RhoA activation result on CNR1 is given as “RhoA activation occurred”.

On to “angiotensin II (DRVYIHPF; Angiotensin-2; UniProt P01019 25-32, looked up) [Ang II, endogenous ligand of AGTR1]”, for which the “RhoA activation (GTP-bound RhoA pulldown)” value in the experiment with RhoA [6] and with RhoA [7] was “induced activation of RhoA” each time.

With thrombin, the RhoA activation entry in the experiment on RhoA [8] and with RhoA [9] was “activated RhoA” throughout.

As a reminder, the EC50 is the concentration giving half of the maximal effect.
